Patent US7390923B2, “Propionamide derivatives useful as androgen receptor modulators” (Orion Corporation, priority 2003, dated 2008)

Target: T1, androgen receptor (AR) (Rattus norvegicus, UniProt P15207)
T1 construct: Ventral prostates were obtained form rats castrated 24 h prior to sacrifice; from tissue; host or cells: rat ventral prostate cytosol (castrated rats, charcoal-treated)
T1 sequence (P15207 1-902): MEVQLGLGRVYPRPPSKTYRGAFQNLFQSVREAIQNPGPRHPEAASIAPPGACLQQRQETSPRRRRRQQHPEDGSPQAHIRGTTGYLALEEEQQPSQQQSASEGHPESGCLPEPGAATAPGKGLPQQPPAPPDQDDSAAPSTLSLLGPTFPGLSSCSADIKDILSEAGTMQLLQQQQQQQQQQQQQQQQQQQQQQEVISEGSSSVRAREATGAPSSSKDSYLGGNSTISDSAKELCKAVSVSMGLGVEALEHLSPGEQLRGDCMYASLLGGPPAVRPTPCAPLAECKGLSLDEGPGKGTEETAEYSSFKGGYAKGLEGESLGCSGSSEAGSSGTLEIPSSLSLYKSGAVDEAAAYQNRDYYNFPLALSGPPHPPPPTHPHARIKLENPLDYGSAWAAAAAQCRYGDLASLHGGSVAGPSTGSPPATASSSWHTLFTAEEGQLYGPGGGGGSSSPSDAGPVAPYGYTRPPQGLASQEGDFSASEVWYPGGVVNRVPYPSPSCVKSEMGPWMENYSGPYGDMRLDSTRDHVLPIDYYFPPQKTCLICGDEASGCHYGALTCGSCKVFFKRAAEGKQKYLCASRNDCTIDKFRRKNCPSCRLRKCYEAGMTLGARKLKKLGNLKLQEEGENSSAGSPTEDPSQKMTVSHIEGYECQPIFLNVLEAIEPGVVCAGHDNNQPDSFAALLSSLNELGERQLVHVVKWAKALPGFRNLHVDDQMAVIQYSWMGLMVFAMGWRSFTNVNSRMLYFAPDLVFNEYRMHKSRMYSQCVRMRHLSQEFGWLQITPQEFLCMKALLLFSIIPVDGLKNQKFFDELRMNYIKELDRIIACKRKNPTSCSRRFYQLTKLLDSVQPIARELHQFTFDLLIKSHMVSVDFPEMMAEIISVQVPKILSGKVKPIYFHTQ
Assay: AR binding assay, competition with [3H]-mibolerone binding in rat ventral prostate cytosol
Conditions: 1 nM [3H]-mibolerone, overnight at 0° C.; for inhibition at 0.2 µM / Inhibition (%) of [3H]-mibolerone binding at 0.2 μM: test compound 0.2 μM; for inhibition at 2 µM / Inhibition (%) of [3H]-mibolerone binding at 2.0 μM: test compound 2.0 μM
Experimental: Ventral prostates were obtained form rats castrated 24 h prior to sacrifice. Fresh prostate was minced and washed with Buffer A (Schilling and Liao, Prostate, 5:581-588, 1984). The minces were then homogenized in 3× volume of Buffer A containing protease inhibitors (Complete, Mini, EDTA-free Roche). The homogenate was centrifuged at 30000 g for 30 min. The resultant supernatants were treated with 1×volume of dextran-coated charcoal solution (12.5 g activated charcoal, 12.5 g dextran per liter of buffer A) to remove endogenous steroids. The samples were incubated for 5 min and centrifuged at 16000 g for 10 min. Aliquots of the charcoal-treated cytosol were taken for androgen receptor assays. All procedures were carried out at 0-4° C.
Cytosol androgen receptor concentration was determined as described (Isomaa et al., Endocrinology, 111: 833-843, 1982) with minor modifications. Cytosol preparations were prepared as described above, and bound and free steroids were separated by treatment with an equal volume of dextran-charcoal suspension for 5 min at 4° C. followed by centrifugation at 16000 g for 10 min. Bound radioactivity was determined by counting supernatant fractions in 1 ml of OptiPhase HiSafe3 or OptiPhase Supermix (PerkinElmer).
Cytosol preparations were labelled with 1 nM [^3H]-mibolerone overnight at 0° C. (total). To determine AR binding activity of the compounds of the present invention (test compounds), the ability of test compounds to compete with [^3H]7α,17α-dimethyl-17β-hydroxy-4-estren-3-one ([^3H]-mibolerone) binding was studied. 1 nM [^3H]-mibolerone and test compounds in two concentrations (0.2 and 2 uM) were incubated overnight at 0° C. To determine non-specific binding, parallel incubations were carried out using 1 nM concentration [^3H]-mibolerone with 500-fold molar excess of unlabelled testosterone. Two to four replicates were used for each sample. After incubation, bound and free steroids were separated as described above and bound radioactivity was determined. The ability of the test compounds to bind AR is reported as reduction in bound radioactivity obtained with 1 nM [^3H]-mibolerone. The results (% inhibition) were calculated as: % inhibition=100−(100×(averagetest compound/averagetotal)).

Structure (SMILES)	inhibition at 0.2 µM [%]	inhibition at 2 µM [%]	Inhibition (%) of [3H]-mibolerone binding at 0.2 μM [%]	Inhibition (%) of [3H]-mibolerone binding at 2.0 μM [%]
Cc1cc(NC(=O)C(C)(O)COc2ccc(F)c(F)c2)ccc1[N+](=O)[O-] (stereo not shown) [Example 28, 3-(3,4-Difluorophenoxy)-2-hydroxy-2-methyl-N-(3-methyl-4-nitrophenyl)propionamide]	90	88	–	–
Cc1cc(NC(=O)C(C)(O)COc2cc(C)c(Cl)c(C)c2Cl)ccc1[N+](=O)[O-] (stereo not shown) [Example 29, 3-(2,4-Dichloro-3,5-dimethylphenoxy)-2-hydroxy-2-methyl-N-(3-methyl-4-nitrophenyl)propionamide]	92	90	–	–
Cc1cc(NC(=O)C(C)(O)COc2ccc3cc(Br)ccc3c2)ccc1[N+](=O)[O-] (stereo not shown) [Example 30, 3-(6-Bromonaphtalen-2-yloxy)-2-hydroxy-2-methyl-N-(3-methyl-4-nitrophenyl)-propionamide]	–	–	80	99
CC(=O)Nc1ccc(OCC(C)(O)C(=O)Nc2ccc([N+](=O)[O-])c(C)c2)cc1C(F)(F)F (stereo not shown) [Example 31, 3-(4-Acetylamino-3-trifluoromethylphenoxy)-2-hydroxy-2-methyl-N-(3-methyl-4-nitrophenyl)propionamide]	18	75	–	–
Cc1cc(NC(=O)C(C)(O)COc2ccc(C(=O)c3ccc(Cl)cc3)cc2)ccc1[N+](=O)[O-] (stereo not shown) [Example 36, 3-[4-(4-Chlorobenzoyl)phenoxy]-2-hydroxy-2-methyl-N-(3-methyl-4-nitrophenyl)propionamide]	3	50	–	–
Cc1cc(NC(=O)C(C)(O)COc2ccc(C#N)c(F)c2)ccc1[N+](=O)[O-] (stereo not shown) [Example 42, 3-(4-Cyano-3-fluorophenoxy)-2-hydroxy-2-methyl-N-(3-methyl-4-nitrophenyl)propionamide]	83	97	–	–
Cc1cc(NC(=O)[C@@](C)(O)COc2ccc(C#N)c(F)c2)ccc1[N+](=O)[O-] [Example 43, (2S)-3-(4-Cyano-3-fluorophenoxy)-2-hydroxy-2-methyl-N-(3-methyl-4-nitrophenyl)propionamide]	95	99	–	–
Cc1cc(NC(=O)C(C)(O)COc2ccc(Cl)c([N+](=O)[O-])c2)ccc1[N+](=O)[O-] (stereo not shown) [Example 44, 3-(4-Chloro-3-nitrophenoxy)-2-hydroxy-2-methyl-N-(3-methyl-4-nitrophenyl)propionamide]	83	100	–	–
CCOC(=O)Nc1ccc(OCC(C)(O)C(=O)Nc2ccc([N+](=O)[O-])c(C)c2)cc1F (stereo not shown) [Example 50, {2-Fluoro-4-[2-hydroxy-2-(3-methyl-4-nitrophenylcarbamoyl)propoxy]-phenyl}carbamic acid ethyl ester]	96	99	–	–
CC(O)(COc1ccc(C#N)c(F)c1)C(=O)Nc1ccc([N+](=O)[O-])c(CO)c1 (stereo not shown) [Example 51, 3-(4-Cyano-3-fluorophenoxy)-2-hydroxy-N-(3-hydroxymethyl-4-nitrophenyl)-2-methylpropionamide]	73	92	–	–
Cc1cc(NC(=O)C(C)(O)CNc2ccc(F)cc2)ccc1[N+](=O)[O-] (stereo not shown) [Example 52, 3-(4-Fluorophenylamino)-2-hydroxy-2-methyl-N-(3-methyl-4-nitrophenyl)propionamide]	90	115	–	–
Cc1cc(NC(=O)C(C)(O)CNc2ccc(C#N)cc2)ccc1[N+](=O)[O-] (stereo not shown) [Example 55, 3-(4-Cyanophenylamino)-2-hydroxy-2-methyl-N-(3-methyl-4-nitrophenyl)propionamide]	87	99	–	–
Cc1cc(NC(=O)C(C)(O)CNc2ccc(C#N)c(Cl)c2)ccc1[N+](=O)[O-] (stereo not shown) [Example 56, 3-(3-Chloro-4-cyanophenylamino)-2-hydroxy-2-methyl-N-(3-methyl-4-nitrophenyl)propionamide]	90	95	–	–
Cc1cc(NC(=O)C(C)(O)COc2ccncc2)ccc1[N+](=O)[O-] (stereo not shown) [Example 58, 2-Hydroxy-2-methyl-N-(3-methyl-4-nitrophenyl)-3-(pyridin-4-yloxo)propionamide]	–	–	84	93
Cc1cc(NC(=O)C(C)(O)COc2ccc(C#N)c(Cl)c2)ccc1[N+](=O)[O-] (stereo not shown) [Example 63, 3-(3-Chloro-4-cyanophenoxy)-2-hydroxy-2-methyl-N-(3-methyl-4-nitrophenyl)propionamide]	92	98	–	–
Cc1cc([N+](=O)[O-])ccc1NC(=O)C(C)(O)COc1ccc(C#N)c(F)c1 (stereo not shown) [Example 64, 3-(4-Cyano-3-fluorophenoxy)-2-hydroxy-2-methyl-N-(2-methyl-4-nitrophenyl)propionamide]	79	89	–	–
CC(O)(COc1ccc(C#N)c(F)c1)C(=O)Nc1ccc([N+](=O)[O-])c(C=O)c1 (stereo not shown) [Example 66, 3-(4-Cyano-3-fluorophenoxy)-N-(3-formyl-4-nitrophenyl)-2-hydroxy-2-methylpropionamide]	69	93	–	–
Cc1cc(NC(=O)C(C)(O)COc2ccc(CCCCl)cc2)ccc1[N+](=O)[O-] (stereo not shown) [Example 79, 3-[4-(3-Chloropropyl)phenoxy]-2-hydroxy-2-methyl-N-(3-methyl-4-nitrophenyl)propionamide]	89	98	–	–
Cc1cc(NC(=O)C(C)(O)COc2ccc(OCCCl)cc2)ccc1[N+](=O)[O-] (stereo not shown) [Example 80, 3-[4-(2-Chloroethoxy)phenoxy]-2-hydroxy-2-methyl-N-(3-methyl-4-nitrophenyl)propionamide]	87	99	–	–
COCc1ccc(OCC(C)(O)C(=O)Nc2ccc([N+](=O)[O-])c(C)c2)cc1 (stereo not shown) [Example 81, 2-Hydroxy-3-(4-methoxymethylphenoxy)-2-methyl-N-(3-methyl-4-nitrophenyl)propionamide]	85	98	–	–
